Consider 3 compounds from patent US20240101584A1, “TARGETED DELIVERY OF 1,2,4,5 TETRAOXANE COMPOUNDS AND THEIR USES” (Westlake University, priority 2021, published 2024).

One experiment relates to HL-60 cells. The settings on record: cited from earlier work; for IC50: reported data of known compounds.
Experiment [1] relates to MDA-MB-231 cells. The following applies: reported data of known compounds; cited from earlier work.
The next experiment relates to HCT116 cells. The settings on record: reported data of known compounds; cited from earlier work.
For the next experiment, the system named is HepG2 cells. The following applies: reported compound in the literature; read-out: overall IC50, HepG2 cells, reported compound; cited from earlier work.
Another experiment concerns PMBC. The following applies: reported compound in the literature; cited from earlier work.
The next experiment has as its system Hela cells. The following applies: reported compound in the literature; read-out: overall IC50, Hela cells, reported compound; cited from earlier work.
The subject of the next experiment is HEK293 cells. The settings on record: reported compound in the literature; read-out: overall IC50, HEK293 cells, reported compound; cited from earlier work.
For a further experiment, the system named is HeyA8 cells. The experiment can be described thus: CellTiter-Glo viability, adherent HeyA8 ovarian cancer cells. The format is cell-based. The following applies: 5 μM. On the technique in general: In ATP-based viability assays light output follows the ATP content of the culture.
Experiment [2] concerns lipid ROS in MDA-MB-231 cells. Kind of experiment: C11-BODIPY lipid ROS detection in MDA-MB-231 cells. The format is cell-based. The settings on record: 48 5 μM, 37b 1 μM, RSL3 0.5 μM; 6 h incubation. The protocol:
FIG. 11 is a bar graph showing the detection of lipid ROS with compound 48 (5 μM), compound 37b (1 μM), or RSL3 (0.5 μM) by BODIPY 581/591 C11 after 6 h incubation in MDA-MB-231 cells. **P≤0.01 versus DMSO group. Data are plotted as the mean±SD, n=3 biologically independent samples. All P values were determined using two-tailed Student's t-test.
Since lipid peroxidation is the evidence about ferroptosis, C11-BODIPY probe is used to validate the lipid ROS generated by tetraoxanes. It is a ratiometric membrane-targeted probe which changes the emission from 590 nm to 510 nm upon the detection of lipid ROS. Here, MDA-MB-231 cells were treated with 48, 37b and RSL3, respectively. The lipid ROS levels were quantified by flow cytometry. Untreated group gave weak signal in FL1 channel (FIG. 11).

The subject of another experiment is NIH3T3 cells. The experiment can be described thus: MTT viability assay, non-cancerous NIH3T3 cells. The class given is cell-based. The protocol: (§1) The anticancer activities of the exemplary compounds listed in Example 1 were tested against human cervix Hela cells, mammary breast cancer MDA-MB-231 cells, human hepatocellular HepG2 cells, human colorectal HCT116 cells, mammary ductal T47D cells, non-cancerous NIH3T3 cells, dog's kidney MDCK cells, and mouse brain bEnd.3 cells, respectively.
A general note: Formazan colour is commonly taken as a measure of viable cells.

In experiment [3] the test system is MDA-MB-231 cells. Kind of experiment: MTT viability assay, MDA-MB-231 cells. The format is cell-based. The settings on record: MTT, 48 h incubation, mean, n = 3; read-out: IC50 against MDA-MB-231 cells. The protocol:
as §1

Where two headings read alike, the source gives them in different places.

In general, IC50 refers to the midpoint of a concentration-inhibition curve.

Take `CC(C)(N)CNC(=O)C[C@H]1CC[C@]2(CC1)OO[C@]1(O2)C2CC3CC(C2)CC1C3` [OZ277]: the IC50 was 53.8 µM with HL-60 cells, 35.2 µM in the experiment on MDA-MB-231 cells [1] and 68.3 µM in the experiment on HCT116 cells.

In the case of `CN1CCN(C2CCN(C(=O)CC3CCC4(CC3)OOC3(OO4)C4CC5CC(C4)CC3C5)CC2)CC1` (stereo not drawn) [RKA182], the IC50 with HepG2 cells is above 12 µM; with HL-60 cells, 11.6 ± 0.4 µM; in the experiment on PMBC, 46.6 ± 0.7 µM; with Hela cells, above 12 µM; in the experiment on HEK293 cells, above 12 µM. In the experiment with HL-60 cells (reported compound in the literature), the “best selectivity index (PMBC versus HL-60)” value is 4.

For the compound `COC(=O)c1ccc([C@@H]2c3[nH]c4ccccc4c3C[C@@H](C(=O)OC)N2C(=O)CCl)cc1` [RSL3, reference compound], the “elimination of adherent HEYA8 cells” value in the experiment on HeyA8 cells was “eliminate the majority of adherent HEYA8 cells”. Besides, the “lipid ROS (BODIPY 581/591 C11, FL1, flow cytometry)” value in experiment [2] is listed as “fluorescence enhancement in FL1 was observed”. In the experiment with NIH3T3 cells, the “selectivity between non-cancerous cells and cancer cells” value was “more cytotoxic to non-cancerous cells than cancer cells”. In addition, the IC50 came to 0.028 µM with NIH3T3 cells (MTT, 48 h incubation, mean, n = 3, read-out: IC50 against NIH3T3 cells); 0.0283 ± 0.0086 µM in the experiment on NIH3T3 cells (text b507, read-out: IC50 on NIH3T3 cells); 0.041 µM in the experiment with MDA-MB-231 cells [3].
